What was measured:
[1] = tested on: VM1 through VM4 variants of V79 cells; test: Resistance of stepwise-selected cell variants to MPA cytotoxicity; format: cell-based, Chinese hamster
Procedure: According to the present invention, the resistance level of one of these cell variants was further increased by a stepwise selection in the presence of increasing concentrations of MPA. After adaptation to the higher concentration of MPA, the cells were seeded in medium containing an increased concentration of MPA at 200 cells per 60-mm petri dish, and MPA-resistant colonies were isolated 8 days later.

[2] = tested on: parental V79 cells; test: Resistance of parental cells to MPA cytotoxicity; format: cell-based, Chinese hamster
[3] = biological target: purified Chinese hamster IMPDH (Cricetulus griseus, UniProt P12269); test: Kinetic studies of purified IMPDH (IMP-dependent NAD reduction, absorbance at 340 nm)
Procedure: Kinetic studies were carried out by varying the substrate conditions. In all cases, linear reciprocal plots were defined by simple regression analysis of the data.

[4] = tested on: V79 cells; test: Growth of control and MNNG-treated V79 cells incubated with MPA; format: cell-based, Chinese hamster; details: untreated 5.0±0.3
[5] = biological target: E. coli IMPDH enzyme (Escherichia coli, UniProt P0ADG7); details: unlike mammalian cell enzymes; cited from earlier work
[6] = tested on: IMP1 cell clone (transfected V15 hamster cells); details: mycophenolic acid 2 μg/mL in culture medium
Procedure: After introduction of the construct into the hamster cells, mycophenolic acid (2 μg/mL) was added to the culture medium to select for those cells that had integrated the construct into their genetic material. Those cells that have integrated the construct into their genetic material produce the IMPDH enzyme and are therefore resistant to the cytotoxic effects of mycophenolic acid.
[Dulbecco's modified MEM containing 5% fetal bovine serum, aminopterin (2 μg/mL), and mycophenolic acid (25 μg/mL), and supplemented with hypoxanthine (15 μg/mL), thymidine (10 μg/mL), and xanthine (250 μg/mL)]. The ability of the cells to grow in the selective medium is attributable to the production of the E. coli gpt enzyme, which catalyzes the production of xanthine monophosphate from the reaction of xanthine and phosphoribosyl pyroposphate. Presence of the enzyme compensates for the purine de novo synthetic block imposed by the presence of aminopterin and MPA.

purified Chinese hamster IMPDH, sequence (P12269 whole entry): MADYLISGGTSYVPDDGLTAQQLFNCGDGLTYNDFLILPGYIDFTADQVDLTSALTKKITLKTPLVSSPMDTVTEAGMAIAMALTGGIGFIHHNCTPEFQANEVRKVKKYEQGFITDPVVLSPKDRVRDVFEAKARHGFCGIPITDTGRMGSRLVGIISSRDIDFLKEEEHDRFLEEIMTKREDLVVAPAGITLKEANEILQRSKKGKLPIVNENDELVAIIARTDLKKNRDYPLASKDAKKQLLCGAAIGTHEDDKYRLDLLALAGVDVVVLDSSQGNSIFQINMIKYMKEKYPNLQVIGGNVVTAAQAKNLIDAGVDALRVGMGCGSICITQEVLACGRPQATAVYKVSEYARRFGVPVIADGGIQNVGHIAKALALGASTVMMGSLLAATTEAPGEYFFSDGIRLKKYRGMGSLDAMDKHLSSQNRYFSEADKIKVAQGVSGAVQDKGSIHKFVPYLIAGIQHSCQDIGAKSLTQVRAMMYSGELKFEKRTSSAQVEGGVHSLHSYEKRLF
E. coli IMPDH enzyme, sequence (P0ADG7 whole entry): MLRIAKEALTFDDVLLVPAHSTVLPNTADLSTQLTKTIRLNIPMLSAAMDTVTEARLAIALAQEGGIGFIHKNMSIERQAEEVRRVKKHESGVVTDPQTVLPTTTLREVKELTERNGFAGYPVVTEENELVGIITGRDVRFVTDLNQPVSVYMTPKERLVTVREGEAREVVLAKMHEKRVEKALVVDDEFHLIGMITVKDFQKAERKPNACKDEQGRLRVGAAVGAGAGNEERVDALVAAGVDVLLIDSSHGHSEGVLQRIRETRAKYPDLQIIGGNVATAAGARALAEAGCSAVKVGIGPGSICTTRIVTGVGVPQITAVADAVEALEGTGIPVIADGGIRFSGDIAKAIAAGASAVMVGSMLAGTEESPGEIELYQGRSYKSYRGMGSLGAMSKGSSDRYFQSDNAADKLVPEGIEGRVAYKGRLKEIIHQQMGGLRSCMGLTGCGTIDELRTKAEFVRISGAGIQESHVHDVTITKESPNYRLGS

Km ([3]; substrate of Chinese hamster enzyme, linear reciprocal plots) | SMILES | MPA concentration to which cells are resistant ([1]; VM1 variant) | MPA concentration to which cells are resistant ([1]; VM2 variant) | MPA concentration to which cells are resistant ([1]; VM3 variant) | MPA concentration to which cells are resistant ([1]; VM4 variant) | MPA concentration to which cells are resistant [2] | Ki ([3]; sensitivity of Chinese hamster enzyme to MPA) | cells per Petri dish after 5 days of growth, mean (±SD) ([4]; MPA at 0.1 μg/mL) | cells per Petri dish after 5 days of growth, mean (±SD) ([4]; MPA at 0.3 μg/mL) | sensitivity to the inhibitory effect [5] | resistance of cell clone to cytotoxic effects [6]
– | COc1c(C)c2c(c(O)c1C/C=C(\C)CCC(=O)O)C(=O)OC2 [MPA, mycophenolic acid] | 5 µg/mL | 10 µg/mL | 25 µg/mL | 50 µg/mL | 0.1 µg/mL | nanomolar range | 1.4±0.2 ×10^6 cells per Petri dish | 0.2±0.05 ×10^6 cells per Petri dish | insensitive | resistant
29 µM | NC(=O)c1ccc[n+]([C@@H]2O[C@H](COP(=O)([O-])OP(=O)(O)OC[C@H]3O[C@@H](n4cnc5c(N)ncnc54)[C@H](O)[C@@H]3O)[C@@H](O)[C@H]2O)c1 [NAD] | – | – | – | – | – | – | – | – | – | –

Reference: US6479628B1, “Methods and materials relating to IMPDH and GMP production” (Arch Development Corporation, priority 1988, dated 2002)
